Values of other authors, collected in US20250268823A1, “Aqueous Quetiapine Solutions” (RELIIS LTD, priority 2022, published 2025).
Structures can show the parent of a compound that is named as a salt.

What was measured:
[1] = system: α2-adrenergic receptors
[2] = target: dopaminergic D2 receptors (Homo sapiens, UniProt P14416)
[3] = target: dopaminergic D1 receptors (Homo sapiens, UniProt P21728)
[4] = system: α1-adrenergic receptors

Sequence of dopaminergic D2 receptors (P14416 whole entry): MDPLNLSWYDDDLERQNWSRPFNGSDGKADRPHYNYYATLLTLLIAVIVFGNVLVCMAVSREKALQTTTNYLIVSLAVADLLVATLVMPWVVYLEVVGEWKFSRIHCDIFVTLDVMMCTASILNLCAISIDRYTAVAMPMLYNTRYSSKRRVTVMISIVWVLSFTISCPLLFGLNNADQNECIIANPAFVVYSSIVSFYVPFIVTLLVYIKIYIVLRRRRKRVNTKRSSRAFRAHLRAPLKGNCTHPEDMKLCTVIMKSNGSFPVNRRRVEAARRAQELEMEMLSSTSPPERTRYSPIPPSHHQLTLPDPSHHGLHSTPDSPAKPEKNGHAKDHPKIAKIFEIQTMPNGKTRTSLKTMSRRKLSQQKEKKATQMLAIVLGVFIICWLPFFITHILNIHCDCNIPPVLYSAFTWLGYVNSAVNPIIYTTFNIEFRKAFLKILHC
Sequence of dopaminergic D1 receptors (P21728 whole entry): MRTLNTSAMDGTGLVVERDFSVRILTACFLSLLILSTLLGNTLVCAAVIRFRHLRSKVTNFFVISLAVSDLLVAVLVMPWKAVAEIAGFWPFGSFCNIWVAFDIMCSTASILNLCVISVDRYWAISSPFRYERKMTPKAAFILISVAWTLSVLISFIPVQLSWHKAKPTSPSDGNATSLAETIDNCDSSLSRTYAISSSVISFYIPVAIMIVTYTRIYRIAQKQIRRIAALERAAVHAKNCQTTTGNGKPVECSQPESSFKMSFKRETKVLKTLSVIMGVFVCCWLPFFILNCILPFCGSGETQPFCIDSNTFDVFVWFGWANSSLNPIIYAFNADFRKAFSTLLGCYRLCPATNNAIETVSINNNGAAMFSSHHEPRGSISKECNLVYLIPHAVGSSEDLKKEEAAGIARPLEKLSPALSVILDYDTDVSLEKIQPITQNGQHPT

Row | SMILES | affinity to α2-adrenergic receptors [1] | affinity to D2 receptors [2] | binding at D2 receptors [2] | affinity to D1 receptors [3] | affinity to α1-adrenergic receptors [4] | solubility in water
1 | OCCOCCN1CCN(C2=Nc3ccccc3Sc3ccccc32)CC1 [Quetiapine, 2-(2-(4-(dibenzo[b,f][1,4]thiazepin-11-yl)piperazin-1-yl)ethoxy)ethanol] | moderate affinity | major affinity | low binding | major affinity | moderate affinity | –
2 | OCCOCCN1CCN(C2=Nc3ccccc3Sc3ccccc32)CC1 [quetiapine fumarate] | – | – | – | – | – | about 0.04 mg/ml
